From patent publication US20260185118A1 (priority 2023, published 2026)

Tested on: Diaphorina citri Kuwayama
Type: in vivo
Conditions: solution at 1 μg/L in n-hexane applied to citrus leaves, compared to solvent n-hexane, 40 min

C=C1CC/C=C(\C)CC[C@@H]2[C@@H]1CC2(C)C [β-caryophyllene]
effect on Diaphorina citri Kuwayama selection preference: significant repulsive effect

(E)-β-farnesene
effect on Diaphorina citri Kuwayama selection preference: significant repulsive effect
